Data published in patent publication US8106015B2, “Method for enhancing immune response with peptide” (Juridical Foundation The Chemo-Sero-Therapeutic Research …, priority 2007, dated 2012).
Values joined by “and” are separate entries in the source; they are usually repeats but may differ in a detail not shown here. Equal values may be shown once.

Assays:
Type in all cases: in vivo, C57BL/6 mice
[1] = tested on: anti-Aβ IgG antibody; experiment: Example 5: anti-Aβ IgG antibody titer, cysteine at the C-terminal, the N-terminal and both terminals; conditions: Day 7 from the final 4th immunization; for Antibody titer, Mean: group mean of 4 mice; for Antibody titer: individual animals (No. 1-4), 100 μg/mouse, 2-week intervals, no adjuvant
[2] = tested on: anti-Aβ IgG antibody; experiment: Example 6: anti-Aβ IgG antibody titer, Aβ peptide sequences with insertion of cysteine; conditions: Day 7 from the final 4th immunization; for Antibody titer, Mean: group mean of 4 mice; for Antibody titer: individual animals (No. 1-4), 100 μg/mouse, 2-week intervals, no adjuvant
[3] = tested on: anti-Aβ IgG antibody; experiment: Example 3: anti-Aβ IgG antibody titer, Aβ peptides with addition of cysteine of 26-40 amino acids in length; conditions: Day 7 from final 3rd immunization; for Antibody titer, Mean: group mean of 4 mice; for Antibody titer: individual animals (No. 1-4), 100 μg/mouse, 3 times at 2-week intervals, no adjuvant
[4] = tested on: anti-Aβ IgG antibody; experiment: Example 4: anti-Aβ IgG antibody titer, Aβ peptides with 0, 1 or 2 molecules of cysteine added
[5] = tested on: anti-Aβ IgG antibody; experiment: Example 1: anti-Aβ IgG antibody titer in murine serum after immunization with Aβ peptides with and without addition of cysteine
[6] = tested on: anti-Aβ IgG antibody; experiment: Example 10: anti-Aβ IgG antibody titer, Aβ peptide with/without cysteine, with and without adjuvant; conditions: Day 7 from final 3rd immunization
[7] = tested on: anti-Aβ IgG antibody; experiment: Example 7: anti-Aβ IgG antibody titer, Aβ peptide with cysteine plus exogenous amino acid sequence; conditions: Day 7 from the final 4th immunization; for Antibody titer, Mean: group mean of 4 mice; for Antibody titer: individual animals (No. 1-4), 100 μg/mouse, 2-week intervals, no adjuvant
[8] = tested on: anti-Aβ IgG antibody; experiment: Example 2: anti-Aβ IgG antibody titer, Aβ peptide with cysteine vs carrier-linked Aβ peptide with/without adjuvant; conditions: Day 7 from final 3rd immunization
[9] = group mean of 4 mice, serum, 100 μg/mouse intradermally or subcutaneously, 2-week intervals, no adjuvant

CDAEFRHDSGYEVHHQKLVFFAEDVGSNK [Cys28AA, Peptide with addition of 1 molecule of cysteine at the N-terminal]
Antibody titer, Mean [1]: 5891.8 ng/mL | Antibody titer ([1]; listed as Cys2BAA): 7708 ng/mL and 423 ng/mL and 15328 ng/mL and 108 ng/mL

CDAEFRHDSGYEVHHQKLVFFAEDVGSNKC [Cys28AACys, Peptide with addition of each 1 molecule of cysteine at the C-terminal and the N-terminal]
Antibody titer, Mean [1]: 13051.6 ng/mL | Antibody titer [1]: 772 ng/mL and 49849 ng/mL and 1537 ng/mL and 48 ng/mL

DAEFRHDCSGYEVHHQKLVFFAEDVGSNK [28AA7Cys, 28-amino acid Aβ peptide with insertion of cysteine after residue 7]
Antibody titer, Mean [2]: 23.0 ng/mL | Antibody titer [2]: 21 ng/mL and 24 ng/mL and 17 ng/mL and 30 ng/mL

DAEFRHDSGYCEVHHQKLVFFAEDVGSNK [28AA10Cys, 28-amino acid Aβ peptide with insertion of cysteine after residue 10]
Antibody titer, Mean [2]: 17.7 ng/mL | Antibody titer [2]: 26 ng/mL and 19 ng/mL and 18 ng/mL and 8 ng/mL

DAEFRHDSGYEVHHQKLVCFFAEDVGSNK [28AA18Cys, 28-amino acid Aβ peptide with insertion of cysteine between 18th-19th amino acid residues]
Antibody inducing ability [2]: antibody inducing ability was found | Antibody inducing ability as compared to the group administered with 28AACys [2]: higher antibody inducing ability | Antibody titer, Mean [2]: 611899.2 ng/mL | Antibody titer [2]: 2163676 ng/mL and 92083 ng/mL and 54037 ng/mL and 137801 ng/mL

DAEFRHDSGYEVHHQKLVFFAEDVGCSNK [28AA25Cys, Aβ peptide with insertion of cysteine between the 25th and 26th amino acid residues]
Antibody inducing ability [2]: antibody inducing ability was found | Antibody titer, Mean [2]: 6860.8 ng/mL | Antibody titer [2]: 14972 ng/mL and 4721 ng/mL and 4483 ng/mL and 3267 ng/mL

DAEFRHDSGYEVHHQKLVFFAEDVGSC [26AACys, 26-amino acid Aβ peptide with addition of cysteine at the C-terminal]
Antibody titer, Mean [3]: 24.5 ng/mL | Antibody titer [3]: 39 ng/mL and 19 ng/mL (2×) and 21 ng/mL

DAEFRHDSGYEVHHQKLVFFAEDVGSNC [27AACys, 27-amino acid Aβ peptide with addition of cysteine at the C-terminal]
Antibody titer, Mean [3]: 19.0 ng/mL | Antibody titer [3]: 15 ng/mL and 19 ng/mL (2×) and 24 ng/mL

DAEFRHDSGYEVHHQKLVFFAEDVGSNKC [28AACys, 28-amino acid Aβ peptide with addition of cysteine]
Antibody inducing ability ([4]; 1 vs 2 molecules of cysteine at the C-terminal): almost the same antibody inducing ability | Antibody titer, Mean ([4]; group mean of 4 mice, Day 7 from the final 4th immunization): 5070.2 ng/mL | Antibody titer ([4]; individual animals (No. 1-4), Day 7 from the final 4th immunization, 100 μg/mouse, 2-week intervals, no adjuvant): 211 ng/mL and 365 ng/mL and 19578 ng/mL and 127 ng/mL | Antibody inducing ability against Aβ [3]: higher antibody titer | Antibody titer, Mean [3]: 51916.1 ng/mL | Antibody titer [3]: 3120 ng/mL and 2191 ng/mL and 115618 ng/mL and 86736 ng/mL | Antibody inducing ability [2]: antibody inducing ability was found | Antibody titer, Mean [2]: 18946.0 ng/mL | Antibody titer [2]: 20883 ng/mL and 10503 ng/mL and 38907 ng/mL and 5491 ng/mL | Increase in the antibody titer with addition of cysteine ([5]; compared to the same Aβ peptide fragment without addition of cysteine): about 39 fold | Antibody titer, Day 7 from 2nd administration, Mean [5, 9]: 157767.25 ng/mL | Antibody titer, Day 7 from 3rd administration, Mean [5, 9]: 26043.00 ng/mL | Antibody titer, Day 7 from 2nd administration ([5]; individual animals (No. 1-4), serum, 100 μg/mouse intradermally or subcutaneously, 2-week intervals, no adjuvant): 74096.0 ng/mL and 30542.0 ng/mL and 389239.0 ng/mL and 137192.0 ng/mL | Antibody titer, Day 7 from 3rd administration ([5]; individual animals (No. 1-4), serum, 100 μg/mouse intradermally or subcutaneously, 3 times at 2-week intervals, no adjuvant): 20265.0 ng/mL and 2337.0 ng/mL and 69198.0 ng/mL and 12372.0 ng/mL | Antibody titer, Mean ([6]; group mean of 4 mice): 19243.7 ng/mL | Antibody titer ([6]; individual animals (No. 1-4), 100 μg Aβ peptide per animal, 3 times at 2-week intervals): 8847 ng/mL and 9458 ng/mL and 10446 ng/mL and 48224 ng/mL | Antibody titer, Mean [1]: 155867.0 ng/mL | Antibody titer [1]: 290461 ng/mL and 94 ng/mL and 139927 ng/mL and 192986 ng/mL | Antibody inducing ability [7]: antibody inducing ability was found | Antibody titer, Mean [7]: 5070.2 ng/mL | Antibody titer [7]: 211 ng/mL and 365 ng/mL and 19578 ng/mL and 127 ng/mL | Antibody titer, Mean ([8]; group mean of 5 mice): 4237.48 ng/mL | Antibody titer ([8]; individual animals (No. 1-5), primary 100 μg, 2nd and 3rd 50 μg per animal, 2-week intervals): 1714.4 ng/mL and 5949.1 ng/mL and 10122.3 ng/mL and 716.6 ng/mL and 2685.0 ng/mL

DAEFRHDSGYEVHHQKLVFFAEDVGSNKCEIFEFTTD [Peptide with addition of cysteine at the C-terminal plus an exogenous peptide]
Antibody inducing ability [7]: antibody inducing ability was found | Antibody titer, Mean [7]: 21099.2 ng/mL | Antibody titer [7]: 8196 ng/mL and 28782 ng/mL and 2162 ng/mL and 45257 ng/mL

DAEFRHDSGYEVHHQKLVFFAEDVGSNKCGAIIG [33AA28Cys, Aβ peptide with insertion of cysteine between the 28th and 29th amino acid residues]
Antibody inducing ability [2]: antibody inducing ability was found | Antibody titer, Mean [2]: 4105.0 ng/mL | Antibody titer [2]: 245 ng/mL and 1932 ng/mL and 29 ng/mL and 14214 ng/mL

DAEFRHDSGYEVHHQKLVFFAEDVGSNKCGAIIGLM [35AA28Cys, Aβ peptide with insertion of cysteine between the 28th and 29th amino acid residues]
Antibody inducing ability [2]: antibody inducing ability was found | Antibody titer, Mean [2]: 6897.5 ng/mL | Antibody titer [2]: 1753 ng/mL and 17265 ng/mL and 2103 ng/mL and 6469 ng/mL

DAEFRHDSGYEVHHQKLVFFAEDVGSNKCTTD [28AACysTTD, Peptide with addition of cysteine at the C-terminal plus an exogenous peptide]
Antibody inducing ability [7]: antibody inducing ability was found | Antibody titer, Mean [7]: 28279.3 ng/mL | Antibody titer [7]: 46 ng/mL and 106899 ng/mL and 4316 ng/mL and 1855 ng/mL
